From patent US20060205774A1, “4-(4-(Heterocyclylakoxy) phenyl-1-(heterocyclyl-carbonyl) piperidine derivavites and related compounds as histamine h3 antagonists for the treatment of neurological diseases such as alzheimer's” (priority 2003, published 2006)

Target: T1, histamine H3 receptor (Homo sapiens, UniProt Q9Y5N1)
T1 construct: expressed in transfected cells; host or cells: CHO K1 cells carrying pSwitch, transfected with pGeneH3, mifepristone-induced; clone 3H3; membrane preparation
Assay: Histamine H3 functional antagonist assay (GTPγS SPA on membranes)
Assay type: biochemical
Settings: membranes of CHO K1 cells expressing human histamine H3; [35S]GTPγS; histamine 0.3 μM
Method: A membrane preparation containing histamine H3 receptors may be prepared in accordance with the following procedures:
Ligated DNA was transformed into competent DH5α E. coli host bacterial cells and plated onto Luria Broth (LB) agar containing Zeocin™ (an antibiotic which allows the selection of cells expressing the sh ble gene which is present on pGene and pSwitch) at 50 μg ml^−1. Colonies containing the re-ligated plasmid were identified by restriction analysis. DNA for transfection into mammalian cells was prepared from 250 ml cultures of the host bacterium containing the pGeneH3 plasmid and isolated using a DNA preparation kit (Qiagen Midi-Prep) as per manufacturers guidelines (Qiagen).
CHO K1 cells previously transfected with the pSwitch regulatory plasmid (InVitrogen) were seeded at 2×10e6 cells per T75 flask in Complete Medium, containing Hams F12 (GIBCOBRL, Life Technologies) medium supplemented with 10% v/v dialysed foetal bovine serum, L-glutamine, and hygromycin (100 μg ml^−1), 24 hours prior to use. Plasmid DNA was transfected into the cells using Lipofectamine plus according to the manufacturers guidelines (InVitrogen). 48 hours post transfection cells were placed into complete medium supplemented with 500 μg ml^−1 Zeocin™.
10-14 days post selection 10 nM Mifepristone (InVitrogen), was added to the culture medium to induce the expression of the receptor. […] Approximately 1×10e7 cells were examined for receptor expression by staining with a rabbit polyclonal antibody, 4a, raised against the N-terminal domain of the histamine H3 receptor, incubated on ice for 60 minutes, followed by two washes in sorting medium. […] Following two further washes with Sorting Medium, cells were filtered through a 50 μm Filcon™ (BD Biosciences) and then analysed on a FACS Vantage SE Flow Cytometer fitted with an Automatic Cell Deposition Unit. […] Positively stained cells were sorted as single cells into 96-well plates, containing Complete Medium containing 500 μg ml^−1 Zeocin™ and allowed to expand before reanalysis for receptor expression via antibody and ligand binding studies. […]

T1 sequence (Q9Y5N1 whole entry): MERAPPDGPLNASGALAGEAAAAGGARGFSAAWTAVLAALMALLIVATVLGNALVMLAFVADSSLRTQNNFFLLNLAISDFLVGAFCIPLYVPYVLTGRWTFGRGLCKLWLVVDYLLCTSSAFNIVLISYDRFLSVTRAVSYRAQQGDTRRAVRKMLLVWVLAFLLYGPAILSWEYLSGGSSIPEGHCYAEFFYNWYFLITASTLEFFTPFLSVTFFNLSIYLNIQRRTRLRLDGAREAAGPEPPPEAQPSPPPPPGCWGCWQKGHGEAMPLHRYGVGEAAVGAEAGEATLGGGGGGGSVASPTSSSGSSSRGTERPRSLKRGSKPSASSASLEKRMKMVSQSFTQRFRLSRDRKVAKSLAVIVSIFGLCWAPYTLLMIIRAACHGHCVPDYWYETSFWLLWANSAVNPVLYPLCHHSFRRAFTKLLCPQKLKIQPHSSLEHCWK

SMILES | Kb [nM]
CC(C)N1CCC(Oc2ccc(C3CCN(C(=O)c4ccc(C#N)cc4)CC3)cc2)CC1 [Example E12, 4-{[4-(4-{[1-(1-Methylethyl)-4-piperidinyl]oxy}phenyl)-1-piperidinyl]carbonyl}benzonitrile] | < 1
CC(C)N1CCC(Oc2ccc(C3CCN(C(=O)c4ccc(C(F)(F)F)nc4)CC3)cc2)CC1 [Example E52, 5-{[4-(4-{[1-(1-Methylethyl)-4-piperidinyl]oxy}phenyl)-1-piperidinyl]carbonyl}-2-(trifluoromethyl)pyridine] | < 1
CC(C)N1CCC(Oc2ccc(C3CCN(C(=O)c4ccc(C#N)nc4)CC3)cc2)CC1 [Example E51, 5-{[4-(4-{[1-(1-Methylethyl)-4-piperidinyl]oxy}phenyl)-1-piperidinyl]carbonyl}-2-pyridinecarbonitrile] | < 1
